# Assay results reported in PMC3694426 (Clinical cancer research : an official journal of the …, 2013).
# Marks after values point to notes of the source that are not given here.
# Key:
# [1] = plasma pharmacokinetics in patients; format: in vivo, human; settings: for CL/F: day 22 of cycle 1, plasma, arithmetic mean (CV%); for half-life: in vivo
# SCLC tumors = settings: cited from earlier work
smiles,measurement,setting,value
CC1=C2C[C@H]3[C@@H](CC[C@@H]4C[C@H](NS(C)(=O)=O)CC[C@@]43C)[C@@H]2CC[C@@]2(C1)O[C@@H]1C[C@H](C)CN[C@H]1[C@H]2C [IPI-926],CL/F,[1]; 20 mg QD oral (n = 1),111 (NC) L/h
same,CL/F,[1]; 30 mg QD oral (n = 1),59.0 (NC) L/h
same,CL/F,[1]; 40 mg QD oral (n = 1),50.0 (NC) L/h
same,CL/F,[1]; 60 mg QD oral (n = 1),28.6 (NC) L/h
same,CL/F,"[1]; 130 mg QD oral, n = 4",23.0 (36.0) ^b L/h
same,CL/F,[1]; 160 mg QD oral (n = 4),21.2 (38.5) L/h
same,CL/F,[1]; 180 mg QD oral (n = 1),14.0 (NC) L/h
same,CL/F,[1]; 200 mg QD oral (n = 1),13.3 (NC) L/h
same,CL/F,[1]; 210 mg QD oral (n = 5),20.6 (35.5) L/h
same,mean oral clearance (CL/F),"[1]; 130-mg dose level, expanded phases",27.4 L/h
same,mean oral clearance (CL/F),"[1]; 160-mg dose level, expanded phases",20.1 L/h
same,half-life,"[1]; human, po",20 to 40 h
same,half-life,"[1]; human, po, 130 mg",19.3 h
same,half-life,"[1]; human, po, 160 mg",17.3 h
same,half-life,"[1]; human, po, 180 mg",16.1 h
same,half-life,"[1]; human, po, 200 mg",12.7 h
same,Tmax,"[1]; human, plasma, po, Tmax (slow absorption), overall summary, patients",2 to 8 h
same,dose dependence of mean AUC0–24 and Cmax,"[1]; single and multiple doses of 130 to 160 mg, expanded phases",dose-proportional manner
same,regrowth of SCLC tumors following chemotherapy,SCLC tumors,delays regrowth
